# Source: ChEMBL document CHEMBL4229400, “Covalent inhibitors of nicotinamide N-methyltransferase (NNMT) provide evidence for target engagement challenges in situ” (Bioorg Med Chem Lett, 2018)
# Where a chain is given by its changes, count along the chain named. Calls of active or inactive are those of the source. No cut-off for these calls is given here.
# Columns and labels:
# [1] = target: T1, Nicotinamide N-methyltransferase (Homo sapiens, UniProt P40261); experiment: Inhibition of NNMT in human 786-O cell lysate using d4-nicotinamide as substrate preincubated for 1 hr followed by substrate and SAM addition measured after 15 to 30 mins by LC-MS analysis
# T1 sequence (P40261 whole entry): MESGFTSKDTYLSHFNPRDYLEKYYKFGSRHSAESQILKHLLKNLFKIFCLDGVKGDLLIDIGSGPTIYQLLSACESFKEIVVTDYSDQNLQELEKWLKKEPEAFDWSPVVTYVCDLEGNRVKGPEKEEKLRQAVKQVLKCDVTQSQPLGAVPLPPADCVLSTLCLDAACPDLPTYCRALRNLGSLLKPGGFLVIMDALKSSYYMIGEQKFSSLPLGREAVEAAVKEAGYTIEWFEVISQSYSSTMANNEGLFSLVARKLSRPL
# [2] = target: T2, Glutathione S-transferase omega-1 (Homo sapiens) (UniProt P78417); experiment: Binding affinity to GSTO1 C32 residue in human 786-O cell lysate at 5 uM incubated for 1 hr followed by cell lysis by IA-alkyne probe based isoTOP-ABPP analysis
# T2 sequence (whole entry): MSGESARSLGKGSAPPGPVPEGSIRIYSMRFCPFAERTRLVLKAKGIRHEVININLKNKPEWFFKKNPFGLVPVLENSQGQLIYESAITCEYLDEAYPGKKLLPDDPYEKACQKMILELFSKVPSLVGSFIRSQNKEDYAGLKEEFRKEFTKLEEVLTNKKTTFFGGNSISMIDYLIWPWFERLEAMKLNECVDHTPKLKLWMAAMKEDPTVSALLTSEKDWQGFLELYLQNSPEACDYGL
# [3] = target: T1, Nicotinamide N-methyltransferase; experiment: Inhibition of SAH-rhodamine binding to NNMT in human 786-O cell soluble proteomic lysate preincubated for 1 hr followed by SAH-rhodamine addition measured after 5 mins by Gel-based ABPP analysis
# [4] = target: T3, Thioredoxin domain-containing protein 17 (Homo sapiens) (UniProt Q9BRA2); experiment: Binding affinity to TXNDC17 cysteine residue in human 786-O cell lysate at 5 uM incubated for 1 hr followed by cell lysis by IA-alkyne probe based isoTOP-ABPP analysis
# T3 sequence (whole entry): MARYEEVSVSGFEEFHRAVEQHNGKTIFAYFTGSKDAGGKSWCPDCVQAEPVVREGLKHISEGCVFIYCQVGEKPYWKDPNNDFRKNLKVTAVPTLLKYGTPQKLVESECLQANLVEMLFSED
# [5] = target: T4, Aldehyde dehydrogenase 1A1 (Homo sapiens) (UniProt P00352); experiment: Binding affinity to ALDH1A1 cysteine residue in human 786-O cell soluble proteomic lysate at 5 uM incubated for 1 hr followed by cell lysis by IA-alkyne probe based isoTOP-ABPP analysis
# T4 sequence (whole entry): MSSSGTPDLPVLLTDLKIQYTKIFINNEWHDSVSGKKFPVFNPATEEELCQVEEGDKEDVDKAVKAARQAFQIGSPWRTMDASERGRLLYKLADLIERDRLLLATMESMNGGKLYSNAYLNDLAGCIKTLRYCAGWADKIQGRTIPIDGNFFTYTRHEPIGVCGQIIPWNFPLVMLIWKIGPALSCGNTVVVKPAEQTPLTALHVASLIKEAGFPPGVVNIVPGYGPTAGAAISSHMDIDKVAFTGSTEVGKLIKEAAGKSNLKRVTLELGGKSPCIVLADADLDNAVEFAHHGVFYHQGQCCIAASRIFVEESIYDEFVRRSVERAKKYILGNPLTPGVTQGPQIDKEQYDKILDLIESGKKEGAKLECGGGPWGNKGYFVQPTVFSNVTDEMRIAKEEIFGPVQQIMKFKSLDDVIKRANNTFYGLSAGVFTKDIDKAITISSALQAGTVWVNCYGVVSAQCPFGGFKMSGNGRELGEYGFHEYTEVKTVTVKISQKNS
# [6] = test system: T5, Nicotinamide N-methyltransferase (Homo sapiens), P40261 [C165A]; experiment: Inhibition of NNMT C165A mutant in human 786-O cell lysate using d4-nicotinamide as substrate preincubated for 1 hr followed by substrate and SAM addition measured after 15 to 30 mins by LC-MS analysis
# T5 sequence (whole entry): T1 sequence (P40261 whole entry) with C165A
# [7] = target: T3, Thioredoxin domain-containing protein 17 (Homo sapiens); experiment: Binding affinity to TXNDC17 cysteine residue in human 786-O cell soluble proteomic lysate at 5 uM incubated for 1 hr followed by cell lysis by IA-alkyne probe based isoTOP-ABPP analysis
# [8] = target: T6, Heme oxygenase 2 (Homo sapiens) (UniProt P30519); experiment: Binding affinity to HMOX2 cysteine residue in human 786-O cell soluble proteomic lysate at 5 uM incubated for 1 hr followed by cell lysis by IA-alkyne probe based isoTOP-ABPP analysis
# T6 sequence (whole entry): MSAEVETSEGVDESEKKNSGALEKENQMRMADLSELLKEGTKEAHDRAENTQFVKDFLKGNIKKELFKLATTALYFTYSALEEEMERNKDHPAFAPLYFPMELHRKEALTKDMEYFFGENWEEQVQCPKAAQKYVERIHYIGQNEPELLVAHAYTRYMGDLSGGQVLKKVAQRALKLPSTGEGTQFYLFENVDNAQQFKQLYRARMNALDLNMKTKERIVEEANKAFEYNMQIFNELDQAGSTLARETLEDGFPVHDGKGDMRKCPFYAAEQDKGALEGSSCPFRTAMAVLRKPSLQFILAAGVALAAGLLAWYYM
# [9] = target: T7, Nicotinamide N-methyltransferase (Homo sapiens) (UniProt P40261); experiment: Binding affinity to NNMT C165 residue in human 786-O cell lysate at 5 uM incubated for 4 hrs followed by cell lysis by IA-alkyne probe based isoTOP-ABPP analysis
# T7 sequence (whole entry): T1 sequence (P40261 whole entry)
IC50 [1],Activity [2],IC50 [3],Activity [4],Activity [5],inhibition [6],Activity [7],Activity [8],Activity [9],SMILES
0.18 µM,Active,0.35 µM,Active,Active,inactive,Active,Active,inactive,CC(C)CCN(C(=O)CCl)c1cc(C(=O)NCc2cccc([N+](=O)[O-])c2)cc(C(F)(F)F)c1
17 µM,–,22 µM,–,Active,–,–,Active,–,O=C(Nc1cccnc1Cl)c1cc(N(CCCc2ccccc2)C(=O)CCl)cc(C(F)(F)F)c1
